Assay results reported in patent publication US8815919B2, “Oxadiazole derivatives” (Merck Serono SA, priority 2009, dated 2014).
Counter-ions that a name gives are not always drawn. Like-named read-outs stand apart in the source and are kept apart here.

Legend:
[1] = biological target: T1, S1P1 (Homo sapiens, UniProt P21453); test: Receptor binding assay, [33P]sphingosine 1-phosphate competition, S1P1 membranes, WGA SPA beads
Procedure: (§1) Membranes were prepared from CHO cells expressing S1P1 or S1P3 for use in ligand and […] binding studies. Cells were suspended in 50 mM TRIS, pH 7.4, 2 mM EDTA, 250 mM Sucrose (buffer A) and 1× Complete protease inhibitor cocktail (Roche), and disrupted at 4° C. by N2 decompression using a cell disruption bomb (Parr Instrument). Following centrifugation at 1000 RPM for 10 min at 4° C., the supernatant was diluted (2×) in buffer A and centrifuged again at 19000 RPM for 75 min at 4° C. The pellet was then suspended in 10 mM HEPES, pH 7.4, 1 mM EDTA, 250 mM Sucrose (Buffer B), and 1× Complete EDTA-free protease inhibitor cocktail and homogenized using a potter. Membranes were flash frozen in liquid N2 and stored at −80° C.
(§2) Receptor binding assay: [33P]sphingosine 1-phosphate (3000 Ci/mmol; American Radiolabeled Chemicals, Inc.) was added to test compounds in 20% DMSO by competition. Membranes and WGA SPA beads (GE Healthcare) were added to give a final volume of 100 μl in 96-well plates or 50 μl in 384-well plates with assay concentrations of […] [33P]sphingosine 1-phosphate (respectively for S1P1 or S1P3), 50 mM HEPES, pH 7.5, 5 mM MgCl2, 100 mM NaCl, 0.4% fatty acid-free BSA, 1-5 μg/well of proteins in 96-well plates vs 0.6-1 μg/well of proteins in 384-well plates and 100 μg/well of WGA SPA beads in 96-well plates vs 75 μg/well of WGA SPA beads in 384-well plates. Binding was performed for 60 min at RT on a shaker and bound radioactivity was measured on a PerkinElmer 1450 MicroBeta counter. Triplicate samples were averaged and normalized as percentage of inhibition relative to total binding (only DMSO in well) and nonspecific binding (1000-fold excess of unlabeled S1P). Binding data were analyzed using the GraphPad Prism program or Genedata software.
Target sequence in this assay (P21453 whole entry, species assumed): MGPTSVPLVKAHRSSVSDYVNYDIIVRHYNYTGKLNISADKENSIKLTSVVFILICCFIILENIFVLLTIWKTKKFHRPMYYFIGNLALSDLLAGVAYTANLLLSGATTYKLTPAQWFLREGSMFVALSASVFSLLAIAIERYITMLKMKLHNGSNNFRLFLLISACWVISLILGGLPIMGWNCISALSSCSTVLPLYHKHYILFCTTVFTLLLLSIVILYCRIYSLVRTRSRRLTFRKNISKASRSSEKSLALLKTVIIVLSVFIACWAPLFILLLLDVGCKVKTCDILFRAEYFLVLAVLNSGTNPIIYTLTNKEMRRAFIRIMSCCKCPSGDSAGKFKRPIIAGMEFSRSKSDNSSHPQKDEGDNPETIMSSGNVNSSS

[2] = biological target: S1P3 (Homo sapiens, UniProt Q99500); test: Receptor binding assay, [33P]sphingosine 1-phosphate competition, S1P3 membranes, WGA SPA beads
Sequence of S1P3 (Q99500 whole entry, species assumed): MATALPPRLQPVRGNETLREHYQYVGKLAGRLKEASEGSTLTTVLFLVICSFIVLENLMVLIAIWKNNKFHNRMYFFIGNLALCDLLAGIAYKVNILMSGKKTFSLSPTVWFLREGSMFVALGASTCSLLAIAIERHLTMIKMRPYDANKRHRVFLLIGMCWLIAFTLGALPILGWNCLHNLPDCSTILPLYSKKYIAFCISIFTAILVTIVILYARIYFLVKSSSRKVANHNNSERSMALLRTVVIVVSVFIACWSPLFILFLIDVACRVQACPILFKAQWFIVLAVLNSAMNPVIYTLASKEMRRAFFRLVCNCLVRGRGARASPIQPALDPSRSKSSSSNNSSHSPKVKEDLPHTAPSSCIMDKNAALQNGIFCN
Procedure: as §1, §2

[3] = biological target: T1, S1P1; test: S1P1 internalization assay in S1P1-U2OS cells (S1P1-EGFP), cell imaging; type: cell-based; set-up: host or cells: U2OS (human bone osteosarcoma epithelial cells), CMV promoter, geneticin selection; details: 1 hour incubation
Procedure: Cellular functional assays: Internalization of Sphingosine-1-phosphate receptor 1 (S1P1) in a human Cell line (U2OS) in a 384-well format using a Cell Imaging analysis. • Jo, E.; Sanna, M. G.; Gonzalez-Cabrera, P. J.; Thangada, S.; Tigyi, S.; Osborne, D. A.; Hla, T.; Parrill, A. L.; Rosen, H. Chem. Biol. 2005, 12, 703
The S1P1 internalization assay was performed in 384 well plates (Corning® 384 black with clear bottom 3712) using S1P1-U2OS cells from Biolmage (C039A), a human epithelial cell line (Human Bone Osteosarcoma Epithelial Cells). These cells expressed the human S1P1 Receptor fused to the green fluorescent protein (EGFP). A standard CMV promoter (cytomegalovirus promoter) controls the expression of S1P1-EGFP and continuous expression was maintained by addition of geneticin to the culture medium.
S1P1 Receptor desensitization induced the internalization of the membrane-localized S1P1-EGFP fusion protein to endosomes, which can be monitored by cell imaging analysis. The cells are plated in low serum medium (Dulbecco's Modified Eagle Medium (DMEM) with Glutamax-1 and high glucose, 1% Penicillin/Streptomycin, 1% Fetal Calf Serum (FCS), 0.5 mg/ml Geneticin) overnight.
The next day, S1P1-U2OS cells are incubated in 20 μl serum free medium (DMEM with Glutamax-1 and high glucose, 0.1% of fatty-acid free Bovin Serum Albumin (BSA), 10 mM, N′-2-Hydroxyethylpiperazine-N′-2 ethanesulphonic acid (HEPES) 1M) for 2 hours at 37° C./5% CO2. The cells are then treated with 4 μl compounds/agonists (6×/3% DMSO) for a total volume of 24 μl, and plates are incubated for 1 hour at 37° C./5% CO2.
S1P1-U2OS cells are fixed with 25 μl Paraformaldehyde 8% and stained with Hoechst 33345 dye (1:1000) for 20 minutes.
They were then washed 3 times with Phosphate Buffered Saline (PBS) and plates are sealed. The internalization of the receptor S1P1-EGFP is measured on Cellomics by calculating the “spot count per object” (“object” corresponds to nuclear and “spot” corresponds to S1P1-EGFP receptor). Internalization data were observed thanks to vHCS View and analyzed using Genedata® software.
Target sequence in this assay (P21453 whole entry): as the sequence (P21453 whole entry, species assumed) above

[4] = 96 well-plate, read-out: S1P1 binding Ki (M) (96 well-plate)
[5] = 96 well-plate, read-out: S1P3 binding Ki (M) (96 well-plate)
[6] = 384 well-plate, read-out: S1P3 binding Ki (M) (384 well-plate)
[7] = 384 well-plate, read-out: S1P1 binding Ki (M) (384 well-plate)

COCc1cc(-c2nc(-c3ccc(OCCO)c(F)c3)no2)ccc1-c1ccccc1C [Example 28, 2-(2-fluoro-4-{5-[2-(methoxymethyl)-2′-methylbiphenyl-4-yl]-1,2,4-oxadiazol-3-yl}phenoxy)ethanol]
Ki [1, 4]: 8.88e-10 M | Ki [2, 5]: 2.14e-07 M | EC50 [3]: 11.9 nM

COCc1cc(-c2nc(-c3cccc(CN(C)CC(=O)O)c3)no2)ccc1N1CCCCC1 [Example 29]
Ki [1, 4]: 1.47e-10 M | Ki [2, 6]: 2.38e-07 M | EC50 [3]: 7.33 nM

CCOc1cc(-c2nc(-c3cccc(CN(C)CC(=O)O)c3)no2)ccc1-c1ccccc1C [Example 30, N-{3-[5-(2-ethoxy-2′-methylbiphenyl-4-yl)-1,2,4-oxadiazol-3-yl]benzyl}-N-methylglycine, hydrochloride salt]
Ki [1, 4]: 2.01e-10 M | Ki [2, 5]: 3e-08 M | EC50 [3]: 8.92 nM

COCc1cc(-c2nc(-c3cccc(CN(C)CC(=O)O)c3)no2)ccc1-c1ccccc1 [Example 33]
Ki [1, 4]: 1.83e-10 M | Ki [2, 5]: 6.24e-08 M | EC50 [3]: 6.96 nM

COCc1cc(-c2nc(-c3cccc(CN(C)CC(=O)O)c3)no2)ccc1N1CCCC1C (centres unmarked) [Example 34, N-(3-{5-[3-(methoxymethyl)-4-(2-methylpyrrolidin-1-yl)phenyl]-1,2,4-oxadiazol-3-yl}benzyl)-N-methylglycine]
Ki [1, 4]: 1.18e-10 M | Ki [2, 5]: 3.03e-07 M | EC50 [3]: 13.5 nM

COCc1cc(-c2nc(-c3cccc(CN(C)CC(=O)O)c3)no2)ccc1-c1cccc(F)c1C [Example 35, N-(3-{5-[3′-fluoro-2-(methoxymethyl)-2′-methylbiphenyl-4-yl]-1,2,4-oxadiazol-3-yl}benzyl)-N-methylglycine, hydrochloride salt]
Ki [1, 4]: 1.98e-10 M | Ki [2, 5]: 9.4e-08 M | EC50 [3]: 5.88 nM

COCc1cc(-c2nc(-c3cccc(CN(C)CC(=O)O)c3)no2)ccc1-c1ccc(F)cc1C [Example 36, N-(3-{5-[4′-fluoro-2-(methoxymethyl)-2′-methylbiphenyl-4-yl]-1,2,4-oxadiazol-3-yl}benzyl)-N-methylglycine, hydrochloride salt]
Ki [1, 4]: 5.59e-10 M | Ki [1, 7]: 1.97e-09 M | Ki [2, 6]: 2.71e-07 M | EC50 [3]: 14.8 nM

COCc1cc(-c2nc(-c3cccc(CN(C)CC(=O)O)c3)no2)ccc1-c1cc(F)ccc1C [Example 37, N-(3-{5-[5′-fluoro-2-(methoxymethyl)-2′-methylbiphenyl-4-yl]-1,2,4-oxadiazol-3-yl}benzyl)-N-methylglycine, hydrochloride salt]
Ki [1, 4]: 3.33e-10 M | Ki [2, 5]: 6.34e-08 M | EC50 [3]: 6.56 nM

CC1CCCCN1c1ccc(-c2nc(-c3cccc(COCC(=O)O)c3)no2)cc1C(F)(F)F (centres unmarked) [Example 38, [(3-{5-[4-(2-methylpiperidin-1-yl)-3-(trifluoromethyl)phenyl]-1,2,4-oxadiazol-3-yl}benzyl)oxy]acetic acid, hydrochloride salt]
Ki [1, 4]: 6.22e-10 M | Ki [2, 5]: 6.74e-07 M | EC50 [3]: 15.4 nM

COCc1cc(-c2nc(-c3cccc(CN(C)CC(O)CO)c3)no2)ccc1-c1ccccc1C (centres unmarked) [Example 39, 3-[(3-{5-[2-(methoxymethyl)-2′-methylbiphenyl-4-yl]-1,2,4-oxadiazol-3-yl}benzyl)(methyl)amino]propane-1,2-diol]
Ki [1, 4]: 3.71e-10 M | Ki [1, 7]: 2.08e-09 M | Ki [2, 5]: 8.48e-07 M | Ki [2, 6]: 1.18e-06 M | EC50 [3]: 13.5 nM

COCc1cc(-c2nc(-c3cccc(CN(CCO)CCO)c3)no2)ccc1-c1ccccc1C [Example 40, 2,2′-[(3-{5-[2-(methoxymethyl)-2′-methylbiphenyl-4-yl]-1,2,4-oxadiazol-3-yl}benzyl)imino]diethanol]
Ki [1, 4]: 4.52e-10 M | Ki [2, 5]: 5.35e-07 M | Ki [2, 6]: 9.69e-07 M | EC50 [3]: 18.2 nM

COCc1cc(-c2nc(-c3cccc(CC(=O)NCCN(C)C)c3)no2)ccc1-c1ccccc1C [Example 41, N-[2-(dimethylamino)ethyl]-2-(3-{5-[2-(methoxymethyl)-2′-methylbiphenyl-4-yl]-1,2,4-oxadiazol-3-yl}phenyl)acetamide]
Ki [1, 4]: 1.27e-09 M | Ki [1, 7]: 8.34e-09 M | Ki [2, 6]: 4.3e-06 M | EC50 [3]: 76.9 nM

COCc1cc(-c2nc(-c3cccc(CN(C)CC(=O)O)c3)no2)ccc1-c1ccc(F)c(F)c1C [Example 42, N-(3-{5-[3′,4′-difluoro-2-(methoxymethyl)-2′-methylbiphenyl-4-yl]-1,2,4-oxadiazol-3-yl}benzyl)-N-methylglycine, hydrochloride salt]
Ki [1, 4]: 1.82e-10 M | Ki [1, 7]: 1.7e-09 M | Ki [2, 6]: 2.75e-07 M | EC50 [3]: 18.3 nM

COCc1cc(-c2nc(-c3cccc(CC(=O)NCCC(=O)O)c3)no2)ccc1-c1ccccc1C [Example 43, N-[(3-{5-[2-(methoxymethyl)-2′-methylbiphenyl-4-yl]-1,2,4-oxadiazol-3-yl}phenyl)acetyl]-beta-alanine]
Ki [1, 4]: 2.16e-09 M | Ki [1, 7]: 6.6e-09 M | Ki [2, 6]: 2e-07 M | EC50 [3]: 34.5 nM

COCc1cc(-c2nc(-c3cccc(CC(=O)N(C)CC(=O)O)c3)no2)ccc1-c1ccccc1C [Example 44, N-[(3-{5-[2-(methoxymethyl)-2′-methylbiphenyl-4-yl]-1,2,4-oxadiazol-3-yl}phenyl)acetyl]-N-methylglycine]
Ki [1, 4]: 1.71e-09 M | Ki [1, 7]: 1.02e-08 M | Ki [2, 6]: 1.31e-07 M | EC50 [3]: 115 nM

C[C@@H]1CCCCN1c1ccc(-c2nc(-c3cccc(CN(C)CC(=O)O)c3)no2)cc1C(F)(F)F [Example 45, N-methyl-N-(3-{5-[4-[(2R)-2-methylpiperidin-1-yl]-3-(trifluoromethyl)phenyl]-1,2,4-oxadiazol-3-yl}benzyl)glycine, hydrochloride salt]
Ki [1, 4]: 5.2e-10 M | Ki [2, 5]: 1.82e-07 M | EC50 [3]: 12.1 nM

C[C@H]1CCCCN1c1ccc(-c2nc(-c3cccc(CN(C)CC(=O)O)c3)no2)cc1C(F)(F)F [Example 46, N-methyl-N-(3-{5-[4-[(2S)-2-methylpiperidin-1-yl]-3-(trifluoromethyl)phenyl]-1,2,4-oxadiazol-3-yl}benzyl)glycine, hydrochloride salt]
Ki [1, 4]: 1.07e-10 M | Ki [2, 5]: 1.31e-07 M | EC50 [3]: 5.19 nM

COCc1cc(-c2nc(-c3cc(F)c(C(=O)NCCC(=O)O)cc3F)no2)ccc1-c1ccccc1C [Example 47, N-(2,5-difluoro-4-{5-[2-(methoxymethyl)-2′-methylbiphenyl-4-yl]-1,2,4-oxadiazol-3-yl}benzoyl)-beta-alanine]
Ki [1, 4]: 8.5e-10 M | Ki [2, 5]: 4.03e-07 M | Ki [2, 6]: 5.2e-07 M | EC50 [3]: 20.2 nM

COCc1cc(-c2nc(-c3cccc(CCN(C)CC(=O)OC(C)(C)C)c3)no2)ccc1-c1ccccc1C [Example 75]
Ki [1, 4]: 3.04e-09 M | EC50 [3]: 195 nM

Cc1cc(-c2nc(-c3ccc(CN(C)CC(=O)O)cc3)no2)ccc1-c1ccccc1C(F)F [Example 137, N-(4-{5-[2′-(difluoromethyl)-2-methylbiphenyl-4-yl]-1,2,4-oxadiazol-3-yl}benzyl)-N-methylglycine, hydrochloride salt]
Ki [1, 4]: 8.55e-10 M | Ki [1, 7]: 2.37e-09 M | EC50 [3]: 28.9 nM
